Our source for the melting point and IC50 values is US7704991B2, “Substituted diazabicyclo derivatives and their use as monoamine neurotransmitter re-uptake inhibitors” (Neurosearch A/S, priority 2005, dated 2010).

Counter-ions that a name gives are not always drawn. Like-named read-outs stand apart in the source and are kept apart here.

For data set [1], the target named is T1, dopamine (DA) reuptake in synaptosomes (Rattus norvegicus, UniProt P23977).
T1 construct: in synaptosomes as described in WO 97/16451; from tissue
The data set can be described thus: In vitro inhibition of dopamine (DA) reuptake in synaptosomes. In kind it is biochemical.

Data set [2] has as its target T2, serotonine (5-HT) reuptake in synaptosomes (Rattus norvegicus, UniProt P31652).
T2 construct: in synaptosomes as described in WO 97/16451; from tissue
The data set is described as follows: In vitro inhibition of serotonine (5-HT) reuptake in synaptosomes. In kind it is biochemical. The procedure: A number of compounds were tested for their ability to inhibit the reuptake of the monoamine neurotransmitters dopamine (DA) noradrenaline (NA) and serotonine (5-HT) in synaptosomes as described in WO 97/16451.
The test values are given as IC50 (the concentration (μM) of the test substance which inhibits the specific binding of ^3H-DA, ^3H-NA, or ^3H-5-HT by 50%).

Data set [3] concerns the target T3, noradrenaline (NA) reuptake in synaptosomes (Rattus norvegicus, UniProt Q63380).
T3 construct: in synaptosomes as described in WO 97/16451; from tissue
The data set is described as follows: In vitro inhibition of noradrenaline (NA) reuptake in synaptosomes. In kind it is biochemical.

The mark [4] stands for this setting: synaptosomes, 3H-DA, read-out: DA-uptake IC50.
Where [5] appears, read: synaptosomes, 3H-NA, read-out: NA-uptake IC50.

T2 sequence (P31652 whole entry): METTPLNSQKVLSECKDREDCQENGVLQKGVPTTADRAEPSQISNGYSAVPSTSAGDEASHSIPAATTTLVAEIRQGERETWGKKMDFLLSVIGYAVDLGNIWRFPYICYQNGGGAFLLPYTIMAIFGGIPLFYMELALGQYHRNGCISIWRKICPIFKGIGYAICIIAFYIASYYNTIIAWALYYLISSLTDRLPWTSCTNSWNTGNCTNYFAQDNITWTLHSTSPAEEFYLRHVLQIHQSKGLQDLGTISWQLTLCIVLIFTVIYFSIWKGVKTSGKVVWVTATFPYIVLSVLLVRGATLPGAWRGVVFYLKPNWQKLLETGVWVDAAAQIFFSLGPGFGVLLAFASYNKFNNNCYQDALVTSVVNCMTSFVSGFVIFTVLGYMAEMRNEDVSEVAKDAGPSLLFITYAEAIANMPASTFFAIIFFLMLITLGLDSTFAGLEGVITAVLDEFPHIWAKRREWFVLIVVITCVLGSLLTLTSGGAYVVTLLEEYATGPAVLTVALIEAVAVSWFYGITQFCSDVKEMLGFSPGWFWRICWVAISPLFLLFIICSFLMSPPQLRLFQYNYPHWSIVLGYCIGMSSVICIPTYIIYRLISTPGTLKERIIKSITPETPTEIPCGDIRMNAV
T3 sequence (Q63380 1-617): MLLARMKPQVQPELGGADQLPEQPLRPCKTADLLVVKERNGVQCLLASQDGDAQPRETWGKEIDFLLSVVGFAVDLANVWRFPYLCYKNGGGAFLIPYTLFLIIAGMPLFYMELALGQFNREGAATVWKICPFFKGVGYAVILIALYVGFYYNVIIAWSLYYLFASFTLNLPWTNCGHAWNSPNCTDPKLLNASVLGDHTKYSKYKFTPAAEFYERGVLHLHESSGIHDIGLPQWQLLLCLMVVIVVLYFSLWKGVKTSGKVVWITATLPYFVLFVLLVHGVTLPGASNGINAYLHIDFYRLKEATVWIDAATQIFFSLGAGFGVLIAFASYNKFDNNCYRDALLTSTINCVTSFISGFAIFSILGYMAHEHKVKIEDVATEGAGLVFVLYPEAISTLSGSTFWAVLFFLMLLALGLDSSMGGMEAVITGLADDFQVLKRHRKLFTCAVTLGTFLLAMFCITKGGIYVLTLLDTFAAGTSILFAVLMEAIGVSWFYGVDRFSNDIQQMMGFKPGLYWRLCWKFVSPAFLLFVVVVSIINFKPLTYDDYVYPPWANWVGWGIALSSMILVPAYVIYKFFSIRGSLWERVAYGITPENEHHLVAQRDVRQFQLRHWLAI
T1 sequence (P23977 whole entry): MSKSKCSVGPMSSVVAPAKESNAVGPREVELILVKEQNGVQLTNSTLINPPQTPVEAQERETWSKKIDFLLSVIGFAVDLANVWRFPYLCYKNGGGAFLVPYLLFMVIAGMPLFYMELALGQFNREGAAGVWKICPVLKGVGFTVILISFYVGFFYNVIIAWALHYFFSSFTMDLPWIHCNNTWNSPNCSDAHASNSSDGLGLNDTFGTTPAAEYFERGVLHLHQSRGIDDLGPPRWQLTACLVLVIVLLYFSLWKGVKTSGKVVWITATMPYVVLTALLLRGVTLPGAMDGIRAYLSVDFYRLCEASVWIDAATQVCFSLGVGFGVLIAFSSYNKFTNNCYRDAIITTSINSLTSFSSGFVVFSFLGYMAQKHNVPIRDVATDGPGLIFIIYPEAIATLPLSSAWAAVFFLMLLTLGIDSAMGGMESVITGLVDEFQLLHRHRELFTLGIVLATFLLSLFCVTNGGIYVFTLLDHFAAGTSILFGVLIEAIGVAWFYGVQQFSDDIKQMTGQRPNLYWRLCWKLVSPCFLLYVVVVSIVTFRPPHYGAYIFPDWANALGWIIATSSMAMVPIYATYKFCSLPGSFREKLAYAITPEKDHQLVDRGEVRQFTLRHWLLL

Broadly, the melting point is the temperature, or range, at which the solid turns liquid. Broadly, the IC50 is the midpoint of a concentration-inhibition curve. `CN1C2CCC1CN(c1ccc3cc([N+](=O)[O-])ccc3n1)C2` [1st compound of method A, 2-(8-Methyl-3,8-diaza-bicyclo[3.2.1]oct-3-yl)-6-nitro-quinoline]: the melting point fell in the range of 152.1 to 154.5 °C. Also, the half-inhibitory concentration (IC50) in data set [1] (setting [4]) came to 16 µM. Moreover, the half-maximal inhibitory concentration (IC50) in data set [2] amounted to 0.0031 µM. For the same molecule, the concentration for half-maximal inhibition (IC50) in data set [3] (setting [5]) was determined as 4.6 µM.

`COc1ccc2cc(N3CC4CCC(C3)N4C)ccc2c1` (as salt: fumaric acid salt) [1st compound of method B, 3-(6-Methoxy-naphthalen-2-yl)-8-methyl-3,8-diaza-bicyclo[3.2.1]octane] came in with a melting point of 204 to 206 °C.

Consider `CN1C2CCC1CN(c1ccc3ccccc3n1)C2` [2nd compound of method A, 2-(8-Methyl-3,8-diaza-bicyclo[3.2.1]oct-3-yl)-quinoline], for which the results for the 50% inhibitory concentration (IC50) in data set [1] (setting [4]), in data set [2] and in data set [3] (setting [5]) were 1.6 µM, 0.016 µM and 0.45 µM, respectively.

Consider `COc1ccc2cc(N3CC4CCC(C3)N4C)ccc2c1` [1st compound of method B, 3-(6-Methoxy-naphthalen-2-yl)-8-methyl-3,8-diaza-bicyclo[3.2.1]octane], for which the 50% inhibitory concentration (IC50) was determined as 0.056 µM in data set [1]; 0.02 µM in data set [2] (synaptosomes, 3H-5-HT, read-out: 5-HT-uptake IC50); 0.02 µM in data set [3].

As to `CN1C2CCC1CN(c1ccc3ccccc3n1)C2` (as salt: fumaric acid salt) [2nd compound of method A, 2-(8-Methyl-3,8-diaza-bicyclo[3.2.1]oct-3-yl)-quinoline], the melting point was 210 to 212 °C.
